# Data as given in patent publication US20220000117A1, “METHOD FOR CONTROLLING DISEASES IN SMALL GRAIN CEREALS, SEED OF SMALL GRAIN CEREALS, AND METHOD FOR SUPPRESSING LODGING DAMAGE IN SMALL GRAIN CEREALS” (KUMIAI CHEMICAL INDUSTRY CO., LTD., priority 2019, published 2022).
# Legend:
# powdery mildew [1] = test: Test Example 5: control test of wheat powdery mildew, field, wheat variety Haruyutaka; type: in vivo, Blumeria graminis; conditions: Seed Treatment 2.5 g/Seed 1 kg (250 g/ha); leaves just below flag leaves, 85 days after seeding
# Procedure: (§1) Degree of Disease Occurrence=Σ(Index×Number of Leaves of Index)/(4×Number of Investigated Leaves)×100 (1)
# Seed of wheat (variety: Haruyutaka) sterilized in advance with commercial Benlate T wettable powder 20 (“Benlate” is a registered trademark) was used. In Examples 12, 13, and 14, seed having a mass of 1 kg was mixed into 50 ml of suspension water containing 2.5 g or 1.25 g of dichlobentiazox or 50 ml of suspension water containing 2.5 g of isotianil, air-dried, and then, stripe-sown in a field with a furrow width of 30 cm and a ratio of 100 kg/ha (300 seeds/m^2). Moreover, in Comparative Example 14, seed having a mass of 1 kg was mixed into 50 ml of suspension water containing 2.5 g of tiadinil (commercial V-GET flowable was used, “V-GET” is a registered trademark), air-dried, and then, stripe-sown in a field with a furrow width of 30 cm and a ratio of 100 kg/ha (300 seeds/m^2). The presence or absence of disease occurrence and a lesion area ratio of powdery mildew in leaves just below hag leaves (next leaves) of 30 stems were investigated 85 days after seeding by according to the criteria in Table 1, and a disease leaf rate and the degree of disease occurrence were calculated by the above calculation formula(1).
# [2] = tested on: wheat (variety: Haruyutaka); test: Test Example 6: evaluation test of shortening of wheat (culm length, seed yield), field; type: in vivo; conditions: Propiconazole foliage spray 125 g/ha three times only, no seed treatment
# powdery mildew [3] = test: Test Example 1: control test of wheat powdery mildew, field, wheat variety Haruyutaka; type: in vivo, Blumeria graminis; conditions: Foliage Treatment, flag leaves, 79 days after seeding
# Procedure: Seed of wheat (variety: Haruyutaka) sterilized in advance with commercial Benlate T wettable powder 20 (“Benlate” is a registered trademark) was used. In Example 1, seed having a mass of 1 kg was mixed into 100 ml of suspension water containing 5 g of dichlobentiazox, air-dried, and then, stripe-sown in a field with a furrow width of 30 cm and a ratio of 163 kg/ha (417 seeds/m^2). In contrast, in Comparative Example 1, seed which had not treated with dichlobentiazox was sown in a field in the same manner, and a spray solution corresponding to that obtained by suspending 500 g of dichlobentiazox in 200 liters of water per 1 ha was sprayed on foliage of wheat three times, during an ear emergence period (63 days after seeding), a flowering period (70 days after seeding), and a flowering end period (77 days after seeding). Similarly, in place of 500 g of dichlobentiazox in Comparative Example 1, 250 g of azoxystrobin (commercial Amistar 20 flowable was used. “Amistar” is a registered trademark) was used in Comparative Example 2, and 125 g of propiconazole (commercial Tilt emulsifiable concentrate 25 was used, “Tilt” is a registered trademark) was used in Comparative Example 3. The presence or absence of disease occurrence and a lesion area ratio of powdery mildew in flag leaves of 30 stems were investigated 79 days after seeding according to the criteria in Table 1, and a disease leaf rate and the degree of disease occurrence were calculated by the following calculation formula (1).
# as §1
# septoria leaf blotch = test: Test Example 10: control test of septoria leaf blotch of wheat, cup in greenhouse, inoculated, variety ARKEOS (Tables 15 to 19); type: in vivo, Septoria tritici
# Procedure: as §1
# Seed of wheat (variety: ARKEOS) was used, and 100 ml of suspension waters each containing the compound shown in Table 15 at an amount shown in Table 15 (synthesis was performed in accordance with a known method, a liquid dissolved in a small amount of DMSO or formulated 10% wettable powder was used) were prepared. Seed having a mass of 1 kg was mixed into the suspension water with a rate shown in Examples of Table 15, and air-dried, and then, 5 seeds were sown in a plastic cup having a diameter of 6 cm containing mixed soil of river sand and horticultural soil and managed in a greenhouse. In Comparative Examples, 20 ml of suspension water of an active ingredient, which had been adjusted to have a concentration shown in Table 15 to 19, was sprayed in a frame of 45 cm×45 cm in which a pot of wheat seedlings was placed (corresponding to 1000 L/ha) 14 days after seeding. On day 14 after seeding, a spore suspension in which conidiospores of septoria leaf blotch are suspended was sprayed and inoculated on leaves of wheat seedlings (after the sprayed liquid was dried in the case of Comparative Examples), a lesion area ratio of septoria leaf blotch in a second leaf was investigated approximately 35 days after seeding according to the criteria in Table 1, and the degree of disease occurrence was calculated by the above calculation formula (1).
# powdery mildew [4] = test: Test Example 9: control test of wheat powdery mildew, cup in greenhouse, inoculated, Norin No. 61 (Tables 10 to 14); type: in vivo, Blumeria graminis; set-up: key to Degree of Disease Occurrence: Σ(index×leaves)/(4×leaves investigated)×100; 0 = no disease, 100 = max
# Procedure: as §1
# Seed of wheat (variety: Norin No. 61) was used, and 100 ml of suspension waters each containing the compound shown in Table 10 at an amount shown in […] (synthesis was performed in accordance with a known method, a solution dissolved in DMSO or formulated 10% wettable powder was used) were prepared. The seed having a mass of 1 kg of wheat was mixed into the suspension water with a chemical treated amount shown in Table 10, and air-dried, and then, 5 seeds were sown in a plastic cup having a diameter of 6 cm containing river sand and managed in a greenhouse. In Comparative Examples, 20 ml of the suspension water of an active ingredient, which had been adjusted to have a concentration shown in Table 10, was sprayed in a frame of 45 cm×45 cm in which a pot of wheat seedlings was placed (corresponding to 1000 L/ha) 14 days after seeding. On day 14 after seeding, conidiospores of powdery mildew were sifted over leaves of wheat seedlings and inoculated onto the leaves (after the sprayed liquid was dried in the case of Comparative Examples), a lesion area ratio of powdery mildew in a first leaf was investigated 21 days after seeding according to the criteria in Table 1, and the degree of disease occurrence was calculated by the above calculation formula (1).
# [5] = Table 11 run (different day), Foliage Treatment, spray 10 ppm (10 g/ha)
# [6] = Table 11 run (different day), Foliage Treatment, spray 50 ppm (50 g/ha)
# [7] = Table 11 run (different day), Seed Treatment 0.1 g/Seed 1 kg (10 g/ha)
# [8] = Table 11 run (different day), Seed Treatment 0.5 g/Seed 1 kg (50 g/ha)
# [9] = Table 13 run (different day), Foliage Treatment, spray 10 ppm (10 g/ha)
# [10] = Table 13 run (different day), Seed Treatment 0.1 g/Seed 1 kg (10 g/ha)
# [11] = Table 18, Foliage Treatment, spray 50 ppm (50 g/ha)
# [12] = Table 18, Seed Treatment 0.5 g/Seed 1 kg (50 g/ha)
# [13] = Table 14, Foliage Treatment, spray 50 ppm suspension water (corresponding to 50 g/ha) 14 days after seeding, untreated 70.0
# [14] = Table 14, Foliage Treatment, spray 50 ppm suspension water (corresponding to 50 g/ha) 14 days after seeding, untreated 100.0
# [15] = Table 14, Seed Treatment, 0.5 g/Seed 1 kg (corresponding to 50 g/ha), first leaf, 21 days after seeding, untreated 70.0
# [16] = Table 14, Seed Treatment, 0.5 g/Seed 1 kg (corresponding to 50 g/ha), first leaf, 21 days after seeding, untreated 100.0
# [17] = Table 12 run (different day), Foliage Treatment, spray 5 ppm (5 g/ha)
# [18] = Table 12 run (different day), Foliage Treatment, spray 10 ppm (10 g/ha)
# [19] = Table 12 run (different day), Foliage Treatment, spray 50 ppm (50 g/ha)
# [20] = Table 12 run (different day), Seed Treatment 0.05 g/Seed 1 kg (5 g/ha)
# [21] = Table 12 run (different day), Seed Treatment 0.1 g/Seed 1 kg (10 g/ha)
# [22] = Table 12 run (different day), Seed Treatment 0.5 g/Seed 1 kg (50 g/ha)
smiles,measurement,setting,value
"Cc1ccc(NC(=O)c2snnc2C)cc1Cl [Tiadinil, tiadinil, reference compound]",Degree of Disease Occurrence,powdery mildew [1],11.0
same,Disease Leaf Rate (%),powdery mildew [1],33.3%
"CCCC1COC(Cn2cncn2)(c2ccc(Cl)cc2Cl)O1 (stereo not shown) [Propiconazole, propiconazole, reference compound]",Culm Length (cm),[2]; harvested 106 days after seeding,82.5 cm
same,Seed Yield,"[2]; wheat in 3 m2, 106 days after seeding",990 g
same,Degree of Disease Occurrence,powdery mildew [3]; spray 125 g/ha three times,4.4
same,Disease Leaf Rate (%),powdery mildew [3]; spray 125 g/ha three times,32.2%
"CO/C=C(/C(=O)OC)c1ccccc1Oc1cc(Oc2ccccc2C#N)ncn1 [Azoxystrobin, azoxystrobin, reference compound]",Degree of Disease Occurrence,powdery mildew [3]; spray 250 g/ha three times,17.6
same,Disease Leaf Rate (%),powdery mildew [3]; spray 250 g/ha three times,90.0%
CCOC(=O)c1snc(Cl)c1Cl [Compound (8)],Degree of Disease Occurrence,"septoria leaf blotch; Table 17, Foliage Treatment, spray 5 ppm suspension water (corresponding to 5 g/ha) 14 days after seeding, untreated 50.0",38.3
same,Disease Leaf Rate (%),"septoria leaf blotch; Table 17, Foliage Treatment, spray 5 ppm suspension water (corresponding to 5 g/ha) 14 days after seeding, untreated 100.0",100.0%
same,Degree of Disease Occurrence,"septoria leaf blotch; Table 17, Foliage Treatment, spray 50 ppm suspension water (corresponding to 50 g/ha) 14 days after seeding, untreated 50.0",31.7
same,Disease Leaf Rate (%),"septoria leaf blotch; Table 17, Foliage Treatment, spray 50 ppm suspension water (corresponding to 50 g/ha) 14 days after seeding, untreated 100.0",100.0%
same,Degree of Disease Occurrence,"septoria leaf blotch; Table 17, Foliage Treatment, spray 100 ppm suspension water (corresponding to 100 g/ha) 14 days after seeding, untreated 50.0",26.7
same,Disease Leaf Rate (%),"septoria leaf blotch; Table 17, Foliage Treatment, spray 100 ppm suspension water (corresponding to 100 g/ha) 14 days after seeding, untreated 100.0",93.3%
same,Degree of Disease Occurrence,"septoria leaf blotch; Table 17, Seed Treatment, 0.05 g/Seed 1 kg (corresponding to 5 g/ha), untreated 50.0",23.8
same,Disease Leaf Rate (%),"septoria leaf blotch; Table 17, Seed Treatment, 0.05 g/Seed 1 kg (corresponding to 5 g/ha), untreated 100.0",90.0%
same,Degree of Disease Occurrence,"septoria leaf blotch; Table 17, Seed Treatment, 0.5 g/Seed 1 kg (corresponding to 50 g/ha), untreated 50.0",10.3
same,Disease Leaf Rate (%),"septoria leaf blotch; Table 17, Seed Treatment, 0.5 g/Seed 1 kg (corresponding to 50 g/ha), untreated 100.0",36.3%
same,Degree of Disease Occurrence,"septoria leaf blotch; Table 17, Seed Treatment, 1 g/Seed 1 kg (corresponding to 100 g/ha), untreated 50.0",8.8
same,Disease Leaf Rate (%),"septoria leaf blotch; Table 17, Seed Treatment, 1 g/Seed 1 kg (corresponding to 100 g/ha), untreated 100.0",35.0%
same,Degree of Disease Occurrence,powdery mildew [4]; [5],96.9
same,Disease Leaf Rate (%),powdery mildew [4]; [5],100%
same,Degree of Disease Occurrence,powdery mildew [4]; [6],94.8
same,Disease Leaf Rate (%),powdery mildew [4]; [6],100%
same,Degree of Disease Occurrence,powdery mildew [4]; [7],80.2
same,Disease Leaf Rate (%),powdery mildew [4]; [7],100%
same,Degree of Disease Occurrence,powdery mildew [4]; [8],75.1
same,Disease Leaf Rate (%),powdery mildew [4]; [8],96.4%
same,Degree of Disease Occurrence,powdery mildew [4]; [9],72.8
same,Disease Leaf Rate (%),powdery mildew [4]; [9],100.0%
same,Degree of Disease Occurrence,powdery mildew [4]; [10],49.7
same,Disease Leaf Rate (%),powdery mildew [4]; [10],95.8%
N=C(N)c1snc(Cl)c1Cl [Compound (14)],Degree of Disease Occurrence,septoria leaf blotch; [11],48.3
same,Disease Leaf Rate (%),septoria leaf blotch; [11],100.0%
same,Degree of Disease Occurrence,septoria leaf blotch; [12],42.5
same,Disease Leaf Rate (%),septoria leaf blotch; [12],90.0%
same,Degree of Disease Occurrence,powdery mildew [4]; [13],18.3
same,Disease Leaf Rate (%),powdery mildew [4]; [14],61.1%
same,Degree of Disease Occurrence,"powdery mildew [4]; Table 14, Foliage Treatment, spray 100 ppm suspension water (corresponding to 100 g/ha) 14 days after seeding, untreated 70.0",14.4
same,Disease Leaf Rate (%),"powdery mildew [4]; Table 14, Foliage Treatment, spray 100 ppm suspension water (corresponding to 100 g/ha) 14 days after seeding, untreated 100.0",44.4%
same,Degree of Disease Occurrence,powdery mildew [4]; [15],7.8
same,Disease Leaf Rate (%),powdery mildew [4]; [16],25.0%
same,Degree of Disease Occurrence,"powdery mildew [4]; Table 14, Seed Treatment, 1 g/Seed 1 kg (corresponding to 100 g/ha), first leaf, 21 days after seeding, untreated 70.0",11.3
same,Disease Leaf Rate (%),"powdery mildew [4]; Table 14, Seed Treatment, 1 g/Seed 1 kg (corresponding to 100 g/ha), first leaf, 21 days after seeding, untreated 100.0",40.0%
CCNC(=N)c1snc(Cl)c1Cl [Compound (15)],Degree of Disease Occurrence,"septoria leaf blotch; Table 19, Foliage Treatment, spray 50 ppm suspension water (corresponding to 50 g/ha) 14 days after seeding, untreated 45.0",39.2
same,Disease Leaf Rate (%),"septoria leaf blotch; Table 19, Foliage Treatment, spray 50 ppm suspension water (corresponding to 50 g/ha) 14 days after seeding, untreated 98.0",93.6%
same,Degree of Disease Occurrence,"septoria leaf blotch; Table 19, Seed Treatment, 0.5 g/Seed 1 kg (corresponding to 50 g/ha), untreated 45.0",10.3
same,Disease Leaf Rate (%),"septoria leaf blotch; Table 19, Seed Treatment, 0.5 g/Seed 1 kg (corresponding to 50 g/ha), untreated 98.0",41.3%
same,Degree of Disease Occurrence,powdery mildew [4]; [17],66.7
same,Disease Leaf Rate (%),powdery mildew [4]; [17],100.0%
same,Degree of Disease Occurrence,powdery mildew [4]; [18],80.0
same,Disease Leaf Rate (%),powdery mildew [4]; [18],93.3%
same,Degree of Disease Occurrence,powdery mildew [4]; [19],38.3
same,Disease Leaf Rate (%),powdery mildew [4]; [19],60.0%
same,Degree of Disease Occurrence,powdery mildew [4]; [20],40.8
same,Disease Leaf Rate (%),powdery mildew [4]; [20],70.0%
same,Degree of Disease Occurrence,powdery mildew [4]; [21],31.3
same,Disease Leaf Rate (%),powdery mildew [4]; [21],60.0%
same,Degree of Disease Occurrence,powdery mildew [4]; [22],11.9
same,Disease Leaf Rate (%),powdery mildew [4]; [22],34.4%
same,Degree of Disease Occurrence,powdery mildew [4]; [13],47.9
same,Disease Leaf Rate (%),powdery mildew [4]; [14],100.0%
same,Degree of Disease Occurrence,powdery mildew [4]; [15],13.1
same,Disease Leaf Rate (%),powdery mildew [4]; [16],37.5%
